“Also recorded” adds a separate entry of the source.
Legend:
[1] = Single-ascending dose trial of Compound 1 in healthy participants: safety and plasma PK
Method: SSAO inhibition was determined by measuring relative reductions in plasma H2O2 generation after addition of an exogenous substrate (benzylamine). […] Safety was assessed for 7 (±3) days after dosing.
Plasma PK parameters were determined by non-compartmental analysis. […] Percent change in total amine oxidase activity was determined relative to the corresponding pre-dose (baseline) samples.

SSAO = biological target: T1, SSAO (Homo sapiens, UniProt Q16853); experiment: Plasma SSAO activity and methylamine, multiple doses of Compound 1; format: in vivo
T1 construct: from tissue; host or cells: human plasma from dosed participants
T1 sequence (Q16853 29-763 limits assumed): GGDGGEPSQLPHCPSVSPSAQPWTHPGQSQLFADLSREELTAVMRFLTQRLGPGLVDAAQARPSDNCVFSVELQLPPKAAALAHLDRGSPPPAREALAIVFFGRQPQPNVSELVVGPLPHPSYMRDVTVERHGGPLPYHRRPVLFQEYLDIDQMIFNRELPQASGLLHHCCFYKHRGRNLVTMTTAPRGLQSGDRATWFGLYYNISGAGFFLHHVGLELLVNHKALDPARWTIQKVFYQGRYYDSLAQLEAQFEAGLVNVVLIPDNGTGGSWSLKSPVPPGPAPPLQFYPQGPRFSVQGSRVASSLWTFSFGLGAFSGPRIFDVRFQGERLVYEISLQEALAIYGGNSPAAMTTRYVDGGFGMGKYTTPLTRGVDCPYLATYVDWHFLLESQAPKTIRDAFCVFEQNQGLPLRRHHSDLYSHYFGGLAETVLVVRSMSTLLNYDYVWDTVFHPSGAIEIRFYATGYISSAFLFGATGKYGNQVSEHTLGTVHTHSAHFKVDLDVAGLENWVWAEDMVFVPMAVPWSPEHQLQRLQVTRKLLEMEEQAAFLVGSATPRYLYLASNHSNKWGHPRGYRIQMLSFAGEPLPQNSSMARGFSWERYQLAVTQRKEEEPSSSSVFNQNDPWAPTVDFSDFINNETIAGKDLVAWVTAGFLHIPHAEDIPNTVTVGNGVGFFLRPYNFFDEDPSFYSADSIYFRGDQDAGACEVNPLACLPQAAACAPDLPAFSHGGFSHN
Method: A multiple-ascending dose clinical trial of Compound 1 was performed.

[2] = tested on: SHBG, Apo B and serum lipids; experiment: Single-ascending dose trial of Compound 2: serum PD markers; format: in vivo, human; set-up: LDL-c change from baseline / HDL-c change from baseline / TC change from baseline / Apo B change from baseline: unit not given here
Method: Urine samples for Compound 2 concentration and PK sampling were collected pre-dose and at the following timepoints: 0-6 hours, 6-12 hours, 12-24 hours, and 24-48 hours. PK parameters were estimated via noncompartmental methods using Phoenix® WinNonlin® (Certara, LP, Princeton, N.J.). Concentrations of serum pharmacodynamic (PD) biomarkers apolipoprotein B (Apo B) and sex hormone binding globulin (SHBG) were measured using an immunoassay and serum lipids were determined using spectrophotometry.
PD sampling was performed pre-dose, and 48 hours and 72 hours post-dose. Percent change from baseline for PD markers were calculated using an ANCOVA model with percent change from baseline as dependent variable, treatment group as fixed effect, and baseline as covariate. Analyses used observed data only without imputation for missing data.

[3] = all single-dose cohorts, 1-10 mg or placebo (n = 32)
[4] = single dose 1 mg or placebo (n = 8)
[5] = single dose 3 mg or placebo (n = 8)
[6] = single dose 6 mg or placebo (n = 8)
[7] = single dose 10 mg or placebo (n = 8)
[8] = Day 3 after single dose 3 mg (n = 6)
[9] = Day 3 after single dose 10 mg (n = 6)
[10] = Day 3 after single dose 30 mg (n = 6)
[11] = Day 3 after single dose 60 mg (n = 6)

Question: Which results are given for `COC1CCN(c2ncc(OC/C(=C/F)CN)cn2)CC1` [Compound 1, (E)-3-fluoro-2-(((2-(4-methoxypiperidin-1-yl)pyrimidin-5-yl)oxy)methyl)prop-2-en-1-amine]?
Answer: Subject incidence of TEAEs considered possibly treatment-related [1, 3]: 1 (3.1); Subject incidence of any TEAE [1, 3]: 5 (15.6); TEAE frequency: constipation [1, 3]: 1 (3.1); TEAE frequency: contact dermatitis [1, 3]: 2 (6.3); TEAE frequency: dysgeusia [1, 3]: 1 (3.1); TEAE frequency: headache [1, 3]: 1 (3.1); TEAE frequency: sore throat [1, 3]: 1 (3.1); TEAE frequency: upper respiratory tract infection [1, 3]: 1 (3.1); Subject incidence of TEAEs considered possibly treatment-related [1, 4]: 0; Subject incidence of any TEAE [1, 4]: 0; TEAE frequency: constipation [1, 4]: 0; TEAE frequency: contact dermatitis [1, 4]: 0; TEAE frequency: dysgeusia [1, 4]: 0; TEAE frequency: headache [1, 4]: 0; TEAE frequency: sore throat [1, 4]: 0; TEAE frequency: upper respiratory tract infection [1, 4]: 0; Subject incidence of TEAEs considered possibly treatment-related [1, 5]: 0; Subject incidence of any TEAE [1, 5]: 0; TEAE frequency: constipation [1, 5]: 0; TEAE frequency: contact dermatitis [1, 5]: 0; TEAE frequency: dysgeusia [1, 5]: 0; TEAE frequency: headache [1, 5]: 0; TEAE frequency: sore throat [1, 5]: 0; TEAE frequency: upper respiratory tract infection [1, 5]: 0; Subject incidence of TEAEs considered possibly treatment-related [1, 6]: 0; Subject incidence of any TEAE [1, 6]: 2; TEAE frequency: constipation [1, 6]: 0; TEAE frequency: contact dermatitis [1, 6]: 2; TEAE frequency: dysgeusia [1, 6]: 0; TEAE frequency: headache [1, 6]: 0; TEAE frequency: sore throat [1, 6]: 1; TEAE frequency: upper respiratory tract infection [1, 6]: 0; Subject incidence of TEAEs considered possibly treatment-related [1, 7]: 1 (12.5); Subject incidence of any TEAE [1, 7]: 3 (37.5); TEAE frequency: constipation [1, 7]: 1 (12.5); TEAE frequency: contact dermatitis [1, 7]: 0; TEAE frequency: dysgeusia [1, 7]: 1 (12.5); TEAE frequency: headache [1, 7]: 1 (12.5); TEAE frequency: sore throat [1, 7]: 0; TEAE frequency: upper respiratory tract infection [1, 7]: 1 (12.5); plasma PK exposure, dose proportionality ([1]; single dose, between 1 and 10 mg): greater than dose proportional; safety and tolerability ([1]; single oral dose 1 mg to 10 mg): No clinically relevant adverse events or laboratory abnormalities; also recorded: safe and well tolerated; suppression of plasma VAP-1/SSAO-specific amine oxidase activity (SSAO; 10 mg, healthy participants (Example 2)): > 90%; inhibition of plasma SSAO activity (SSAO; Day 1, all dose cohorts): Near complete inhibition; plasma methylamine levels (SSAO; first daily dose 1, 4, 10 mg): increased in a dose proportional manner; duration of inhibition of plasma SSAO amine oxidase activity after cessation of dosing (SSAO; multiple QD doses): up to 2 weeks

Question: What does the source list for `N#Cc1nn(-c2cc(Cl)c(Oc3n[nH]c(=O)c4ccccc34)c(Cl)c2)c(=O)[nH]c1=O` [Compound 2, 2-(3,5-dichloro-4-((4-oxo-3,4-dihydrophthalazin-1-yl)oxy)phenyl)-3,5-dioxo-2,3,4,5-tetrahydro-1,2,4-triazine-6-carbonitrile]?
Answer: LDL-c, total cholesterol, and Apo-B ([2]; Day 3 after single dose): Dose-dependent decreases; Apo B LSM % change [2, 8]: −2.7%; Apo B change from baseline [2, 8]: −1.5; HDL-c LSM % change [2, 8]: 2.4%; HDL-c change from baseline [2, 8]: 0.87; LDL-c LSM % change [2, 8]: −3.1%; LDL-c change from baseline [2, 8]: −3.98; SHBG LSM % change [2, 8]: 6.3%; SHBG change from baseline [2, 8]: 0.20 nmol/L; TC LSM % change [2, 8]: −0.88%; TC change from baseline [2, 8]: −1.85; Apo B LSM % change [2, 9]: −6.0%; Apo B change from baseline [2, 9]: −5.6; HDL-c LSM % change [2, 9]: −1.0%; HDL-c change from baseline [2, 9]: −1.1; LDL-c LSM % change [2, 9]: 0.70%; LDL-c change from baseline [2, 9]: 0.68; SHBG LSM % change [2, 9]: 31.3%; SHBG change from baseline [2, 9]: 15.8 nmol/L; TC LSM % change [2, 9]: −0.84%; TC change from baseline [2, 9]: −1.93; Apo B LSM % change [2, 10]: −11.0%; Apo B change from baseline [2, 10]: −11.5; HDL-c LSM % change [2, 10]: −12.1%; HDL-c change from baseline [2, 10]: −6.1; LDL-c LSM % change [2, 10]: −12.5%; LDL-c change from baseline [2, 10]: −15.7; SHBG LSM % change [2, 10]: 16.5%; SHBG change from baseline [2, 10]: 6.0 nmol/L; TC LSM % change [2, 10]: −11.84%; TC change from baseline [2, 10]: −24.14; Apo B LSM % change [2, 11]: −15.75%; Apo B change from baseline [2, 11]: −13.9; SHBG LSM % change [2, 11]: 13.8%; SHBG change from baseline [2, 11]: 5.05 nmol/L; triglyceride levels ([2]; after a single dose): No significant changes; SHBG relative to placebo ([2]; single doses of ≥10 mg): Significant increases

From patent US20230241071A1, “COMBINATION TREATMENT OF LIVER DISORDERS” (Terns Pharmaceuticals, Inc., priority 2021, published 2023)
